The values below come from publication PMC8572102 (Pharmacogenomics and Personalized Medicine, 2021).

The format of data set [1] is in vivo, human (Chinese patients).
Data set [2] relates to CYP2C19 and CYP3A4. Conditions: major metabolite of voriconazole, in vitro studies; cited from earlier work.

Like-named read-outs stand apart in the source and are kept apart here.

In the case of `C[C@@H](c1ncncc1F)[C@](O)(Cn1cncn1)c1ccc(F)cc1F` [voriconazole], the entries for the “Frequency of supra-therapeutic levels (> 5µg/mL)” value in data set [1] (CYP2C19 intermediate metabolizer patients), in data set [1] (CYP2C19 normal metabolizer patients) and in data set [1] (CYP2C19 poor metabolizer patients) were 13.5%, 15.4% and 47.8%, respectively. Further, the “Median trough concentration of voriconazole in sub-group analysis” value in data set [1] (PM/PPIs users group, excluding cases administered omeprazole or esomeprazole) was “below supra-therapeutic levels”. The compound further showed a concentration at 12 h in data set [1] (human, plasma, 200 mg, Voriconazole trough concentration, median (IQR), all patients, 250 samples from 114 patients, voriconazole 200mg 12hrly, steady state) of 2100 ng/mL.
Take `C[C@@H](c1nc[n+]([O-])cc1F)[C@](O)(Cn1cncn1)c1ccc(F)cc1F` [voriconazole N-oxide]: the “Share of all metabolites” value in data set [2] is “about 74%”.
